From article PMC3903666 (Analytical biochemistry, 2012)
Structures can show the parent of a compound that is named as a salt.

Key:
[1] = biological target: KMO (kynurenine 3-monooxygenase) (Pseudomonas fluorescens, UniProt Q84HF5); experiment: Fluorescence polarization binding assay, KMO
Af SidA [2] = biological target: T1, Af SidA (Aspergillus fumigatus, UniProt E9QYP0); experiment: Fluorescence polarization binding assay, Af SidA
Af SidA [3] = biological target: T1, Af SidA; experiment: Fluorescence polarization displacement assay, Af SidA; assay type: binding
Af SidA [4] = biological target: T1, Af SidA; experiment: Ornithine hydroxylation activity assay and inhibition of Af SidA; assay type: biochemical
Af SidA [5] = biological target: T1, Af SidA; experiment: Fluorescence polarization displacement assay in high throughput screening; assay type: binding; settings: 10 μM compound, 2 μM Af SidA, 30 nM chromophore 4, 2% DMSO

T1 sequence (E9QYP0 whole entry): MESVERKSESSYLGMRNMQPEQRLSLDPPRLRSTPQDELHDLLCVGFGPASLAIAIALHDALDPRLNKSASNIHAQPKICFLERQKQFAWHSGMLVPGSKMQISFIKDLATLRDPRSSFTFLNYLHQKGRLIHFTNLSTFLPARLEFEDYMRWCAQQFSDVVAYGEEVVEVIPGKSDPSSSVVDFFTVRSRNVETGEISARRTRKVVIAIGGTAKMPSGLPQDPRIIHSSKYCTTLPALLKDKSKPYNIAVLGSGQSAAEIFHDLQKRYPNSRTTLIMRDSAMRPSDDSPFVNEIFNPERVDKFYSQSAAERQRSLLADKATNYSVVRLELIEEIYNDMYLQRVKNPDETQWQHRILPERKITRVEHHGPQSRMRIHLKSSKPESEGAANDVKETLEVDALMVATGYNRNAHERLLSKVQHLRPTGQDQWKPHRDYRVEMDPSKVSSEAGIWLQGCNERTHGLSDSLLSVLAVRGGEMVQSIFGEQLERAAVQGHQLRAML
KMO (kynurenine 3-monooxygenase), sequence (Q84HF5 whole entry): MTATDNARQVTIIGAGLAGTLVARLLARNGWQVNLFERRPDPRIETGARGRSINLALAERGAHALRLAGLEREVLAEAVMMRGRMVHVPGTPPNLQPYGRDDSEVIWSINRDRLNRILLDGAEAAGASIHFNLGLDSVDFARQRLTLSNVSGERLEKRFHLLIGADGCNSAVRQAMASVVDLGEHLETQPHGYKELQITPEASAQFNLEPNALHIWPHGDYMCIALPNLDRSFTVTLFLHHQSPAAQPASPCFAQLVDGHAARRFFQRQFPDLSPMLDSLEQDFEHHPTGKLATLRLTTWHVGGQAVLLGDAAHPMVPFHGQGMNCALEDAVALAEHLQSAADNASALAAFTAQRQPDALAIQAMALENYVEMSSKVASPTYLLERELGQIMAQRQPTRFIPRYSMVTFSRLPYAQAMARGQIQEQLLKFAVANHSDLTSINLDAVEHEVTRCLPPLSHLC

SMILES: CN(C)c1ccc2c(c1)Oc1cc(N(C)C)ccc1C21OC(=O)c2ccc(C(=O)NCCCCCC(=O)NCCCCCCOP(=O)(O)OP(=O)(O)OCC3OC(n4cnc5c(N)ncnc54)C(O)C3O)cc21 (centres unmarked) [Chromophore 3]
- Kd [1]: 10 ± 2 µM
- Kd (Af SidA [2]): 9 ± 5 µM

SMILES: CN(C)c1ccc2c(c1)Oc1cc(N(C)C)ccc1C21OC(=O)c2cc(C(=O)NCCCCCC(=O)NCCCCCCOP(=O)(O)OP(=O)(O)OCC3OC(n4cnc5c(N)ncnc54)C(O)C3O)ccc21 (centres unmarked) [Chromophore 4]
- Kd [1]: 0.6 ± 0.05 µM
- Kd (Af SidA [2]): 2.1 ± 0.2 µM

SMILES: NCCCC[C@H](N)C(=O)O [Lysine, lysine]
- Kd (Af SidA [3]): 11000 ± 1000 µM

SMILES: NCCC[C@H](N)C(=O)O [Ornithine, ornithine]
- Kd (Af SidA [3]): 4000 ± 1000 µM

SMILES: C[n+]1cc2c3c(ccc2c2ccc4cc5c(cc4c21)OCO5)OCO3 [Sanguinarine, sanguinarine sulfate]
- IC50 (Af SidA [4]): 500 ± 90 µM
- inhibition of Af SidA activity observed (Af SidA [4]; in the presence of NADPH and ornithine, inhibitor up to 1000 μM): 100%
- decrease of the anisotropy value in the screen (Af SidA [5]): 20%

SMILES: COc1ccc2cc3[n+](cc2c1OC)CCc1cc2c(cc1-3)OCO2 [berberine]
- decrease in anisotropy (specificity of binding to Af SidA) (Af SidA [3]; addition of up to 1 mM compound, Figure 9S): did not produce a decrease in anisotropy similar to sanguinarine

SMILES: COc1ccc2cc([C@H](C)C(=O)O)ccc2c1 [naproxen]
- binding to Af SidA (Af SidA [3]; negative hit, Figure 9S): did not bind
